Assay results as given in EP1103545B1, “2-(3,5-Bis-trifluoromethyl-phenyl)-N-methyl-N-(6-morpholin-4-yl-4-o-tolyl-pyridin-3-yl)-isobutyramide” (F. HOFFMANN-LA ROCHE AG, priority 1999, dated 2001).

What was measured:
[1] = target: NK2 receptors (Homo sapiens, UniProt P21452); settings: binding
[2] = system: emesis induced in Ferets; assay: Emesis induced by various emetogens; type: in vivo
[3] = system: foot-tapping behaviour induced in Gerbils; assay: Foot-tapping behaviour induced by i.c.v. injection of an NK1 receptor agonist; type: in vivo
[4] = target: NK3 receptors (Homo sapiens, UniProt P29371); settings: binding
NK3 receptors, sequence (P29371 whole entry): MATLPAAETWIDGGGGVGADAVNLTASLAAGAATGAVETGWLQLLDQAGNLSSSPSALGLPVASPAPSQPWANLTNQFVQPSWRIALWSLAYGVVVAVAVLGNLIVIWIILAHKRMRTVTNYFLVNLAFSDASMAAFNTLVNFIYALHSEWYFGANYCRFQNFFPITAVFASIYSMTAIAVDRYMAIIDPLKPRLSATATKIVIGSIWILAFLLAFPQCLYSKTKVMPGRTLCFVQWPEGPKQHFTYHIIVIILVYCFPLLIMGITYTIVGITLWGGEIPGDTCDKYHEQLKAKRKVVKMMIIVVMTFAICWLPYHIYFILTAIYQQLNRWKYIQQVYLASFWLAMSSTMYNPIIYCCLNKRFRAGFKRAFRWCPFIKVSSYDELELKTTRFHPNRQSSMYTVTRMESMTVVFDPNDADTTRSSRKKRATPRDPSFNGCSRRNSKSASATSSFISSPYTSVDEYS

[5] = target: T1, recombinant human NK1 receptor (Homo sapiens, UniProt P25103); assay: Substance P induced Ca2+ influx in CHO cells (FLIPR), Schild analysis; type: cell-based
T1 construct: expressed in transfected cells; host or cells: CHO cells
T1 sequence (P25103 whole entry): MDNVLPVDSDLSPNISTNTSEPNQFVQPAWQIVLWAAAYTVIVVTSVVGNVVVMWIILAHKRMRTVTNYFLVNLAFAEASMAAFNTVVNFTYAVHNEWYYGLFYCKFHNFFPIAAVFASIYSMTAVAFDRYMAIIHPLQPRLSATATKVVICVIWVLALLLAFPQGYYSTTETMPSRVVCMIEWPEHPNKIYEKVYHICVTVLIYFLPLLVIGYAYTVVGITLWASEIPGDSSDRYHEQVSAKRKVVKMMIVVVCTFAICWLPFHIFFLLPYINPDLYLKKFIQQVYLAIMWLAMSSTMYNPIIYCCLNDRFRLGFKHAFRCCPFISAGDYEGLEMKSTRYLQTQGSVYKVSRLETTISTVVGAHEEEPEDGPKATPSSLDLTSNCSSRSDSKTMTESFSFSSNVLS
Text: The activity in vitro was examined by studying its effect on substance P induced Ca^2+ influxes in CHO cells expressing the recombinant human NK1 receptor. In these cells, substance P causes a concentration dependent influx of Ca^2+ which can be measured using FLIPR technology.

[6] = system: motion sickness in the suncus murinus; assay: Model of motion sickness; type: in vivo; settings: po

NK2 receptors, sequence (P21452 whole entry): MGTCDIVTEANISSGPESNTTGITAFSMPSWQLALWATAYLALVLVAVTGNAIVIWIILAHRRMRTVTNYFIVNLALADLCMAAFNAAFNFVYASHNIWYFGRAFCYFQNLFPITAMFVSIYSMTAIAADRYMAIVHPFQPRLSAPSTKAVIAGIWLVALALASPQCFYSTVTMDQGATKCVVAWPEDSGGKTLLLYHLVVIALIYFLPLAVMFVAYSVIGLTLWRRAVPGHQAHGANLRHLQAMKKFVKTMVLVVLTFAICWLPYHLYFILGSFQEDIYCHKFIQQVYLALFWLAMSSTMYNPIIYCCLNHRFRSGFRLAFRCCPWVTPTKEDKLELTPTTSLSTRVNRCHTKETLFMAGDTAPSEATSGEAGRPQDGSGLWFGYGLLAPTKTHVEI

SMILES: Cc1ccccc1-c1cc(N2CCOCC2)ncc1N(C)C(=O)C(C)(C)c1cc(C(F)(F)F)cc(C(F)(F)F)c1 [compound of formula I, 2-(3,5-Bis-trifluoromethyl-phenyl)-N-methyl-N-(6-morpholin-4-yl-4-o-tolyl-pyridin-3-yl)-isobutyramide]
- selectivity for the NK1 receptor compared to over 50 other binding sites: over 2 orders of magnitude
- selectivity for the NK1 receptor compared to NK2 receptors [1]: over 2 orders of magnitude
- emesis induced by all emetogens ([2]; 0.3 mg/kg p.o. 2 hours before emetogen (apomorphine, morphine, ipecacuanha, cisplatin, CuSO4)): completely blocked
- ED50 ([2]; Mustela putorius, po, apomorphine-induced emesis): 0.1 mg/kg
- total plasma concentration required to completely block the foot-tapping behaviour ([3]; Gerbils): 10 ng/mL
- functional half life ([3]; Gerbils, persistence of antagonism of foot-tapping): 8 h
- ED50 ([3]; Meriones unguiculatus, po, read-out: dose calculated to inhibit 50 % of the foot-tapping behaviour): 0.2 mg/kg
- selectivity for the NK1 receptor compared to NK3 receptors [4]: over 2 orders of magnitude
- slope of the Schild regression [5]: 1.1
- Kb ([5]; Schild plot, read-out: antagonist affinity (pA2) (converted)): 1.26 nM
- ED50 [6]: 0.2 mg/kg
